From patent publication US20250376441A1, “NOVEL COMPOUND AND PHARMACEUTICAL COMPOSITION COMPRISING SAME AS ACTIVE INGREDIENT” (Industry-Academic Cooperation Foundation, Yonsei University, priority 2017, published 2025)
Read-outs that look alike come from different tables or passages of the source.

Tests used:
HFL-1 = assay: Cytotoxicity test (Cyto X cell viability assay kit), HFL-1; format: cell-based; conditions: Homo sapiens, HFL1
Description: (§1) In order to identify whether the Preparation Example 6 according to the present invention is toxic to cells, a cytotoxicity test was conducted at the Korea Research Institute of Chemical Technology using the Cyto X™ cell viability assay kit ([…]).

[1] = tested on: Salmonella typhimurium TA98; assay: Ames reverse mutation test, TA98
Description: (§2) For each strain, treatment with a single concentration of 200 μg/plate was performed in triplicate and mutation was checked.

[2] = tested on: Salmonella typhimurium TA100
Description: as §2

[3] = tested on: Tunel positive cells in brain tissue; assay: Apoptosis level in brain tissue by TUNEL assay; format: in vivo, ICR mice
Description: Subsequently, the syringe was allowed to stand for 5 minutes and then removed.
Then, an apoptosis level was checked through TUNEL assay. The TUNEL assay is a method to search for cells that have undergone apoptosis by attaching a fluorescent substance to ends of DNA fragments cleaved due to apoptosis. The extracted brain tissue of the experimental animal is fixed by perfusion with 4% formaldehyde. Then, the brain tissue was embedded in paraffin and sectioned to a thickness of 5 μm. The brain tissue fixed on a slide was subjected to a TUNEL assay kit so that the end portions where DNA having undergone apoptosis had been fragmented are fluorescence-stained, and checked by a fluorescence microscope.

hERG channel = hERG channel (Homo sapiens, UniProt Q12809); assay: Cardiac stability test, hERG ligand binding assay; conditions: read-out: Inhibition rate
hERG channel, sequence (Q12809 whole entry): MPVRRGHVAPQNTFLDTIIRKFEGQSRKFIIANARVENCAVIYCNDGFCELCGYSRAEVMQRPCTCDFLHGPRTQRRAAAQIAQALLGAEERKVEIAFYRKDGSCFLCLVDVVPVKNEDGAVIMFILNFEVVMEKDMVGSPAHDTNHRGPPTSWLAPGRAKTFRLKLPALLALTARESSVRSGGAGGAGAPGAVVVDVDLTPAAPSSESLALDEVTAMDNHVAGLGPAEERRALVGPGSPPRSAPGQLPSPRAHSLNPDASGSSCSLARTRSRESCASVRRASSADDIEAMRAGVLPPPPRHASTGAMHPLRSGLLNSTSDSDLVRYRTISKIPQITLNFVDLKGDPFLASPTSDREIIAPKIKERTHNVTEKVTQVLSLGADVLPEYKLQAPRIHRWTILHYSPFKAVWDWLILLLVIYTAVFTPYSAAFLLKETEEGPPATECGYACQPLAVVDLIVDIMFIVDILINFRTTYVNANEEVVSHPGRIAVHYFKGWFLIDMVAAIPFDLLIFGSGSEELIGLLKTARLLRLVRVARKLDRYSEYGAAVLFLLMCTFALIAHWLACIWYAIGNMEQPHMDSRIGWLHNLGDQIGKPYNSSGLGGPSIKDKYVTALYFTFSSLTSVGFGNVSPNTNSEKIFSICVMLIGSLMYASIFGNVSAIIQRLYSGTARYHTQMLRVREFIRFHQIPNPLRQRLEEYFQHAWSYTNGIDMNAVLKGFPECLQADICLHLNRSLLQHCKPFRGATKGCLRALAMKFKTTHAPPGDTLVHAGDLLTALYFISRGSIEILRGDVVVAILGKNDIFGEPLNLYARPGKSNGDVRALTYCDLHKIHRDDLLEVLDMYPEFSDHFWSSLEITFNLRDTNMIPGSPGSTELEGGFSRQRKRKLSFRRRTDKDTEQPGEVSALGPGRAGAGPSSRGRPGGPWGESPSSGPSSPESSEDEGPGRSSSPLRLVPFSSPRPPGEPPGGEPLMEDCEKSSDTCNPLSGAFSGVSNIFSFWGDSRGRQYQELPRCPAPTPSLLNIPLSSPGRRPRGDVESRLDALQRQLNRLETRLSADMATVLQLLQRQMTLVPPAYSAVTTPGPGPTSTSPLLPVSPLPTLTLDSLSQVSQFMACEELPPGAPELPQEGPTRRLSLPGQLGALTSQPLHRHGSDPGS

[4] = tested on: amyloid-beta peptide1-42 degenerative neurological disease-induced mice; assay: Rotarod test; format: in vivo, ICR mice; conditions: p<0.05 vs beta-amyloid group
Description: (§3) In order to induce a degenerative neurological disease, the experimental animals of Preparatory Example 1 were anesthetized by inhalation with 2.5% isoflurane. Then, 1 μg of amyloid-beta peptide1-42, a degenerative neurological disease-inducing substance, was administered to the animals at both hippocampal positions (AP: −2.3, L: ±2.0, H: −1.5) using a stereotaxic apparatus. […] For the administration, 1 μl was injected, at a flow rate of 0.2 μl/min, with a […] gas-tight glass syringe (Hamilton, Reno, NV, USA) using a perfusion pump (Pump 22, Harvard Apparatus, South Natick, MA, USA). Subsequently, the syringe was allowed to stand for 5 minutes and then removed.
(§4) Then, a degenerative neurological disease was induced as in Preparation Example 2.
As an experiment for evaluating effects of the samples on decreased motor coordination ability and motor sensation associated with a degenerative neurological disease, a rotarod experiment which examines the overall motor function of the test groups was conducted. The experimental method was as follows. […] After 24 hours, the time to lose balance and fall off the rotating cylinder of the same condition was measured, and the result is illustrated in FIG. 11.

CHO-K1 = assay: Cytotoxicity test (Cyto X cell viability assay kit), CHO-K1; format: cell-based; conditions: Cricetulus griseus
Description: as §1

[5] = tested on: amyloid-beta peptide1-42 degenerative neurological disease-induced mice; assay: Morris water maze test; format: in vivo, ICR mice
Excerpt: Six-week-old ICR mice (male) were purchased, and then examined for general health for 6 days while subjecting them to quarantine and acclimation under an environment of animal breeding room. Then, healthy individuals were selected and used for the experiment. Identification of each individual was made by marking the number of each individual on the tail using a permanent marker, and identification of a breeding box was made by attaching an individual identification card on which test number, test substance name, test item, date of acquisition, acclimation period, date of grouping, test period, sex/animal number, and person in charge are indicated.
as §3, §4
After induction of the degenerative neurological disease, the following test was conducted after a one-day recovery period passed.
A circular pool (diameter: 120 cm, height: 75 cm) was filled with water to a depth of 25±1 cm as in FIG. 4, and a 24 cm platform was prepared by hiding it 1 cm below the water surface. Space cues were installed on the four sides of the wall so that the aminals can identify locations, and skimmed milk powder was dissolved into water so that the animals cannot identify the platform with naked eyes. One day before the experiment, all the experimental animals were allowed to swim freely for 1 minute in a water bath having no platform, so that the animals can adapt to the swimming situation. After that, a test group was allowed to start, in any order, from two of the three quadrants except the quadrant where the platform was placed, and allowed to find the platform for 60 seconds. In a case where an animal finds the platform, the animal was allowed to stay thereon for 20 seconds. […] As soon as end of the position learning time, which is the 20-second staying time, the animal was allowed to start again from any quadrant, and the time and distance to reach the platform were measured. The procedure was performed four times a day, and all procedures were taken with a camera and analyzed with a video tracking system (Panlab, USA). Probe trials were made on the fifth day after the four-day experiment in toal was completed. The test group was allowed to swim freely for 90 seconds without the platform, thereby performing evaluation on whether the test group holds a memory of the platform location. The results are illustrated in FIGS. 5 to 7.

Structure (SMILES): COc1ccc(OC)c(/C=C/C(=O)c2ccc(NS(=O)(=O)c3ccc(Cl)cc3)cc2)c1 [Preparation Example 6, (E)-4-Chloro-N-(4-(3-(2,5-dimethoxyphenyl)acryloyl)phenyl)benzenesulfonamide]
- IC50 (HFL-1): > 100 µM
- Ames reverse mutation test outcome ([1]; TA98, 200 μg/plate, with or without S9): negative
- Reverse mutation [factor] with S-9 mix ([1]; TA98, with S-9, factor versus control): [1.5]
- Reverse mutation/dish (mean ± SD) with S-9 mix ([1]; TA98, with S-9, Preparation Example 6 at 200 μg/plate, Benzo(a)pyrene concentration 2): 35 ± 2
- Reverse mutation [factor] w/o S-9 mix ([1]; TA98, without S-9, factor versus control): [1.1]
- Reverse mutation/dish (mean ± SD) w/o S-9 mix ([1]; TA98, without S-9, Preparation Example 6 at 200 μg/plate, 2-Nitrofluorene concentration 2): 20 ± 4
- Ames reverse mutation test outcome ([2]; TA100, 200 μg/plate, with or without S9): negative
- Reverse mutation [factor] with S-9 mix ([2]; TA100, with S-9, factor versus control): [1.0]
- Reverse mutation/dish (mean ± SD) with S-9 mix ([2]; TA100, with S-9, Preparation Example 6 at 200 μg/plate, Benzo(a)pyrene concentration 2): 117 ± 4
- Reverse mutation [factor] w/o S-9 mix ([2]; TA100, without S-9, factor versus control): [0.9]
- Reverse mutation/dish (mean ± SD) w/o S-9 mix ([2]; TA100, without S-9, Preparation Example 6 at 200 μg/plate, Sodium azide concentration 1): 104 ± 12
- number of Tunel positive cells ([3]; 1 mg, p<0.05): 88.83±18.98
- number of Tunel positive cells ([3]; 10 mg, p<0.01): 69.5±17.87
- number of Tunel positive cells ([3]; 100 mg, p<0.01): 67.00±19.54
- inhibition at 10 µM (hERG channel; hERG channel (ligand binding assay)): < 1%
- inhibition at 10 µM (hERG channel): ≤ 1%
- time to keep balance on the rotating cylinder ([4]; 10 mg): 48.62 ± 10.54 s
- time to keep balance on the rotating cylinder ([4]; 100 mg): 47.65 ± 8.13 s
- IC50 (CHO-K1): > 100 µM
- maximum platform escape latency ([5]; 1 mg): 136.45 (±26.02) seconds
- minimum time to find the platform ([5]; 1 mg): 44.45 (±13.35) seconds
- escape latency, fourth trial (short-term memory) ([5]; 1 mg, fourth day, p<0.05): 44.45 ± 13.35 s
- escape latency, first trial (long-term memory) ([5]; 1 mg, fourth day, p<0.05 vs beta-amyloid group): 73.58 ± 9.14 s
- maximum platform escape latency ([5]; 10 mg): 128.59 (±23.32) seconds
- minimum time to find the platform ([5]; 10 mg): 40.64 (±10.94) seconds
- escape latency, fourth trial (short-term memory) ([5]; 10 mg, first day, p<0.05): 76.14 ± 13.27 s
- escape latency, fourth trial (short-term memory) ([5]; 10 mg, fourth day, p<0.05): 40.64 ± 10.94 s
- escape latency, first trial (long-term memory) ([5]; 10 mg, fourth day, p<0.05 vs beta-amyloid group): 65.22 ± 13.65 s
- escape latency, fourth trial (short-term memory) ([5]; 10 mg, second day, p<0.05): 59.87 ± 12.56 s
- escape latency, first trial (long-term memory) ([5]; 10 mg, second day, p<0.05 vs beta-amyloid group): 95.05 ± 18.06 s
- escape latency, fourth trial (short-term memory) ([5]; 10 mg, third day, p<0.05): 54.07 ± 14.38 s
- escape latency, first trial (long-term memory) ([5]; 10 mg, third day, p<0.05 vs beta-amyloid group): 91.66 ± 12.68 s
- maximum platform escape latency ([5]; 100 mg): 125.66 (±19.35) seconds
- minimum time to find the platform ([5]; 100 mg): 36.48 (±9.54) seconds
- escape latency, fourth trial (short-term memory) ([5]; 100 mg, first day, p<0.05): 73.79 ± 12.15 s
- escape latency, fourth trial (short-term memory) ([5]; 100 mg, fourth day, p<0.01): 36.48 ± 9.54 s
- escape latency, first trial (long-term memory) ([5]; 100 mg, fourth day, p<0.05 vs beta-amyloid group): 64.7 ± 12.63 s
- escape latency, first trial (long-term memory) ([5]; 100 mg, second day, p<0.01 vs beta-amyloid group): 91.66 ± 12.68 s
- escape latency, fourth trial (short-term memory) ([5]; 100 mg, second day, p<0.05): 59.62 ± 8.22 s
- escape latency, fourth trial (short-term memory) ([5]; 100 mg, third day, p<0.01): 47.74 ± 10.81 s
- escape latency, first trial (long-term memory) ([5]; 100 mg, third day, p<0.05 vs beta-amyloid group): 83.41 ± 11.46 s
